US8957085B2, “Carboxamide bioisosteres of opiates” (Rensselaer Polytechnic Institute, priority 2010, dated 2015)

Key:
[1] = biological target: human κ opioid receptor (Homo sapiens, UniProt P41145); test: biochemical
[2] = biological target: human δ opioid receptor (Homo sapiens, UniProt P41143); test: Opioid receptor binding assay, [3H]naltrindole (δ); conditions: Ki [3H]Naltrindole (δ), membranes of CHO cells expressing human δ opioid receptor; 0.2 nM [3H]naltrindole; mean ± S.E.
[3] = biological target: human μ opioid receptor (Homo sapiens, UniProt P35372); test: Opioid receptor binding assay, [3H]DAMGO (μ)
[4] = 1 mg/kg ip in mice; cited from earlier work

Sequence of human δ opioid receptor (P41143 whole entry): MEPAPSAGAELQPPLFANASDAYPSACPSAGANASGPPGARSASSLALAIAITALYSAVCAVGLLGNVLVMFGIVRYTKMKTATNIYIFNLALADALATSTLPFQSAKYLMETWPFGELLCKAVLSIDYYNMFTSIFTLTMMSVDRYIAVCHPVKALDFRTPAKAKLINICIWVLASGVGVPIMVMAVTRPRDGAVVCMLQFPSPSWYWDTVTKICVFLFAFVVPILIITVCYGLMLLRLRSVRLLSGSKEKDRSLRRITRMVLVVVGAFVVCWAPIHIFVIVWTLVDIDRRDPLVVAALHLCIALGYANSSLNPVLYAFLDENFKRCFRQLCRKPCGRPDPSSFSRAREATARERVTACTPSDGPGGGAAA
Sequence of human κ opioid receptor (P41145 whole entry): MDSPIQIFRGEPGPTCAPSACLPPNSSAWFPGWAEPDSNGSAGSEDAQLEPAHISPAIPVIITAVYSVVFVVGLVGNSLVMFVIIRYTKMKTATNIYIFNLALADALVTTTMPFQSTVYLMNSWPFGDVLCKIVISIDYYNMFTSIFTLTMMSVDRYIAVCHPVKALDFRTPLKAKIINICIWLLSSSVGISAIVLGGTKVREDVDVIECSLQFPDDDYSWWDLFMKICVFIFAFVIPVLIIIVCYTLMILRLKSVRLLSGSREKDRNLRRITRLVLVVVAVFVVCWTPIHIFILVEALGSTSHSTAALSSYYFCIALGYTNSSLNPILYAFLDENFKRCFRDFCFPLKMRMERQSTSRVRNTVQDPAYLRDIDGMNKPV
Sequence of human μ opioid receptor (P35372 whole entry): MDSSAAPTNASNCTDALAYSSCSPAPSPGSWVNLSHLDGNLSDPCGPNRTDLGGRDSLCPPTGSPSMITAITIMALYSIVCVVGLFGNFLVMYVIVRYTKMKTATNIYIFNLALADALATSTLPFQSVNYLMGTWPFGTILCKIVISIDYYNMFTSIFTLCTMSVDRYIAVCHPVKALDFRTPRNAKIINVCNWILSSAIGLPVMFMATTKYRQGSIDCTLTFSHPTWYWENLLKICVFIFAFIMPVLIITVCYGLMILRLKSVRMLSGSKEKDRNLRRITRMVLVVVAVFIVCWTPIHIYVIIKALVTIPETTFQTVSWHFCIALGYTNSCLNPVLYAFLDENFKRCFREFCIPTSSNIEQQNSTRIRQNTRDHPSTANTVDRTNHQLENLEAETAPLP

SMILES | Ki [1] [nM] | Ki [2] [nM] | Ki [3] [nM] | duration of action (antinociception) [4] [h]
CC1C2Cc3ccc(C(=O)NCCc4ccc(-c5ccc(O)cc5)cc4)cc3C1(C)CCN2CC1CC1 (racemic) [Compound 1] | 0.49 ± 0.011 | 0.81 ± 0.12 |  | 
COc1ccc(-c2ccc(CCNC(=O)c3ccc4c(c3)C3(C)CCN(CC5CC5)C(C4)C3C)cc2)cc1C (racemic) [Compound 2] |  | 1.5 ± 0.14 |  | 
COc1ccc(-c2ccc(CCNC(=O)c3ccc4c(c3)C3(C)CCN(CC5CC5)C(C4)C3C)cc2)c(C)c1 (racemic) [Compound 3] | 1.3 ± 0.11 | 1.1 ± 0.18 | 0.23 ± 0.0056 | 
CCOc1ccc(-c2ccc(CCNC(=O)c3ccc4c(c3)C3(C)CCN(CC5CC5)C(C4)C3C)cc2)cc1 (racemic) [Compound 4] | 3.3 ± 0.32 | 3.4 ± 0.039 |  | 
CC(C)Oc1ccc(-c2ccc(CCNC(=O)c3ccc4c(c3)C3(C)CCN(CC5CC5)C(C4)C3C)cc2)cc1 (racemic) [Compound 5] |  | 1.9 ± 0.21 | 0.23 ± 0.041 | 
CC(C)Oc1cccc(-c2ccc(CCNC(=O)c3ccc4c(c3)C3(C)CCN(CC5CC5)C(C4)C3C)cc2)c1 (racemic) [Compound 6] | 2.4 ± 0.25 | 3.9 ± 1.4 | 0.43 ± 0.041 | 
CC(C)Oc1ccccc1-c1ccc(CCNC(=O)c2ccc3c(c2)C2(C)CCN(CC4CC4)C(C3)C2C)cc1 (racemic) [Compound 7] | 1.8 ± 0.17 | 0.55 ± 0.025 |  | 
CC1C2Cc3ccc(C(=O)NCCc4ccc(-c5ccc6c(c5)OCO6)cc4)cc3C1(C)CCN2CC1CC1 (racemic) [Compound 8] | 0.73 ± 0.049 | 1 ± 0.12 |  | 
CC1C2Cc3ccc(C(=O)NCCc4ccc(-c5ccc(C#N)cc5)cc4)cc3C1(C)CCN2CC1CC1 (racemic) [Compound 9] | 1 ± 0.095 | 3 ± 0.11 | 0.017 ± 0.00075 | 
CC1C2Cc3ccc(C(=O)NCCc4ccc(-c5ccc(C=O)cc5)cc4)cc3C1(C)CCN2CC1CC1 (racemic) [Compound 10] | 1.8 ± 0.038 | 2.5 ± 0.12 | 0.002 ± 0.00029 | 
C[C@H]1C2Cc3ccc(C(=O)NCCc4ccc(-c5ccc(C(N)=O)cc5)cc4)cc3[C@@]1(C)CCN2CC1CC1 (racemic) [Compound 34] | 0.91 ± 0.066 | 1 ± 0.018 | 0.0052 ± 0.00055 | 
C[C@H]1C2Cc3ccc(C(=O)NCCc4ccc(-c5ccc(C(=O)O)cc5)cc4)cc3[C@@]1(C)CCN2CC1CC1 (racemic) [Compound 35] | 55 ± 4.1 | 68 ± 9 | 2.3 ± 0.16 | 
COC(=O)c1ccc(-c2ccc(CCNC(=O)c3ccc4c(c3)[C@@]3(C)CCN(CC5CC5)C(C4)[C@@H]3C)cc2)cc1 (racemic) [Compound 36] | 1.1 ± 0.13 | 1.5 ± 0.062 | 0.0091 ± 0.00071 | 
CC1C2Cc3ccc(C(=O)NCCc4ccc(-c5ccc(O)cc5)cc4)cc3C1(C)CCN2CC1CC1 (single isomer, unassigned) [Compound 1A] | 0.36 ± 0.018 | 0.78 ± 0.05 |  | 
C[C@H]1C2Cc3ccc(C(N)=O)cc3[C@@]1(C)CCN2CC1CC1 [Compound 8-CAC, 8-carboxamidocyclazocine] |  |  |  | 15
C[C@H]1[C@H]2Cc3ccc(O)cc3[C@]1(C)CCN2CC1CC1 [cyclazocine] |  |  |  | 2
